Laboratory results published in the supplement of paper PMC11061612.

Legend:
AZD1775 = compound: C=CCn1c(=O)c2cnc(Nc3ccc(N4CCN(C)CC4)cc3)nc2n1-c1cccc(C(C)(C)O)n1 [AZD1775]; conditions: max 3 µM
In short: (§1)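 Cancer cell lines were dosed for 72 hours (final DMSO typically 0.2%) after 24 hours at 37°C and 5% CO2 in 1536-well plates containing 7.5 μl DMEM/F12 or RPMI with 10% FBS. Viability came from CellTiter-Glo 2.0 luminescence, scaled between blank-well and DMSO-well means, and dose responses were fitted to a two-parameter logistic curve with a non-linear mixed effects model. The single-agent IC50 was obtained from this fit.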

Selumetinib = compound: Cn1cnc2c(F)c(Nc3ccc(Br)cc3Cl)c(C(=O)NOCCO)cc21 [Selumetinib]
In short: as §1

AZD8186 = compound: C[C@@H](Nc1cc(F)cc(F)c1)c1cc(C(=O)N(C)C)cc2c(=O)cc(N3CCOCC3)oc12 [AZD8186]; conditions: max 3 µM
In short: as §1

AZD6738 = compound: C[C@@H]1COCCN1C2=NC(=NC(=C2)C3(CC3)[S@](=N)(=O)C)C4=C5C=CNC5=NC=C4 [AZD6738]; conditions: max 10 µM
In short: as §1

AZD0156 = compound: CN(C)CCCOc1ccc(-c2ccc3ncc4c(c3c2)n(C2CCOCC2)c(=O)n4C)cn1 [AZD0156]; conditions: max 3 µM
In short: as §1

AZD7648 = compound: Cc1cc2ncnn2cc1Nc1ncc2c(n1)n(C1CCOCC1)c(=O)n2C [AZD7648]; conditions: max 10 µM
In short: as §1

SN-38 = compound: CCc1c2c(nc3ccc(O)cc13)-c1cc3c(c(=O)n1C2)COC(=O)[C@]3(O)CC [SN-38]; conditions: max 0.3 µM
In short: as §1

Venetoclax = compound: CC1(C)CCC(CN2CCN(c3ccc(C(=O)NS(=O)(=O)c4ccc(NCC5CCOCC5)c([N+](=O)[O-])c4)c(Oc4cnc5[nH]ccc5c4)c3)CC2)=C(c2ccc(Cl)cc2)C1 [Venetoclax]; conditions: max 1 µM
In short: as §1

SG3199 = compound: CC1=CN2[C@@H](C1)C=NC3=CC(=C(C=C3C2=O)OC)OCCCCCOC4=C(C=C5C(=C4)N=C[C@@H]6CC(=CN6C5=O)C)OC [SG3199]; conditions: max 0.001 µM
In short: as §1

Capivasertib = compound: C1CN(CCC1(C(=O)N[C@@H](CCO)C2=CC=C(C=C2)Cl)N)C3=NC=NC4=C3C=CN4 [Capivasertib]
In short: as §1

Dasatinib = compound: CC1=C(C(=CC=C1)Cl)NC(=O)C2=CN=C(S2)NC3=CC(=NC(=N3)C)N4CCN(CC4)CCO [Dasatinib]; conditions: max 2 µM
In short: as §1

AZD5153 = compound: COc1nnc2ccc(N3CCC(c4ccc(OCCN5CCN(C)C(=O)[C@H]5C)cc4)CC3)nn12 [AZD5153]; conditions: max 1 µM
In short: as §1

Doxorubicin = compound: COc1cccc2c1C(=O)c1c(O)c3c(c(O)c1C2=O)C[C@@](O)(C(=O)CO)C[C@@H]3O[C@H]1C[C@H](N)[C@H](O)[C@H](C)O1 [Doxorubicin]; conditions: max 1 µM
In short: as §1

AZD5991 = compound: Cc1c2c(nn1C)CSCc1cc(n(C)n1)CSc1cc(c3ccccc3c1)OCCCc1c(C(=O)O)n(C)c3c-2c(Cl)ccc13 [AZD5991]; conditions: max 1 µM
In short: as §1

Trametinib = compound: CC(=O)Nc1cccc(-n2c(=O)n(C3CC3)c(=O)c3c(Nc4ccc(I)cc4F)n(C)c(=O)c(C)c32)c1 [Trametinib]; conditions: max 1 µM
In short: as §1

Gefitinib = compound: COc1cc2ncnc(Nc3ccc(F)c(Cl)c3)c2cc1OCCCN1CCOCC1 [Gefitinib]; conditions: max 10 µM
In short: as §1

Alisertib = compound: COc1cc(Nc2ncc3c(n2)-c2ccc(Cl)cc2C(c2c(F)cccc2OC)=NC3)ccc1C(=O)O [Alisertib]; conditions: max 10 µM
In short: as §1

Palbociclib = compound: CC(=O)c1c(C)c2cnc(Nc3ccc(N4CCNCC4)cn3)nc2n(C2CCCC2)c1=O [Palbociclib]; conditions: max 10 µM
In short: as §1

AZD4320 = compound: CN(CC[C@H](CSC1=CC=CC=C1)NC2=C(C=C(C=C2)S(=O)(=O)NC(=O)C3=CC=C(C=C3)N4CCC(CC4)[C@H](C5=CC=CC=C5C6=CC=C(C=C6)Cl)O)S(=O)(=O)C(F)(F)F)CCO [AZD4320]; conditions: max 1 µM
In short: as §1

AZD2811 = compound: CCN(CCO)CCCOc1ccc2c(Nc3cc(CC(=O)Nc4cccc(F)c4)[nH]n3)ncnc2c1 [AZD2811]; conditions: max 1 µM
In short: as §1

Savolitinib = compound: C[C@@H](c1ccc2nccn2c1)n1nnc2ncc(-c3cnn(C)c3)nc21 [Savolitinib]; conditions: max 1 µM
In short: as §1

Prexasertib = compound: COc1cccc(OCCCN)c1-c1cc(Nc2cnc(C#N)cn2)n[nH]1 [Prexasertib]; conditions: max 1 µM
In short: as §1

Olaparib = compound: O=C(c1cc(Cc2n[nH]c(=O)c3ccccc23)ccc1F)N1CCN(C(=O)C2CC2)CC1 [Olaparib]
In short: as §1

Taselisib = compound: Cc1nc(-c2cn3c(n2)-c2ccc(-c4cnn(C(C)(C)C(N)=O)c4)cc2OCC3)n(C(C)C)n1 [Taselisib]; conditions: max 10 µM
In short: as §1

Lapatinib = compound: CS(=O)(=O)CCNCc1ccc(-c2ccc3ncnc(Nc4ccc(OCc5cccc(F)c5)c(Cl)c4)c3c2)o1 [Lapatinib]; conditions: max 10 µM
In short: as §1

AZD1390 = compound: CC(C)n1c(=O)n(C)c2cnc3cc(F)c(-c4ccc(OCCCN5CCCCC5)nc4)cc3c21 [AZD1390]; conditions: max 0.3 µM
In short: as §1

Crizotinib = compound: C[C@@H](Oc1cc(-c2cnn(C3CCNCC3)c2)cnc1N)c1c(Cl)ccc(F)c1Cl [Crizotinib]; conditions: max 10 µM
In short: as §1

Row | Cell Line | IC50, cell viability 72 h (AZD1775) | IC50, cell viability 72 h (Selumetinib; max 10 µM) | IC50, cell viability 72 h (AZD8186) | IC50, cell viability 72 h (AZD6738) | IC50, cell viability 72 h (AZD0156) | IC50, cell viability 72 h (AZD7648) | IC50, cell viability 72 h (SN-38) | IC50, cell viability 72 h (Venetoclax) | IC50, cell viability 72 h (SG3199) | IC50, cell viability 72 h (Capivasertib; max 10 µM) | IC50, cell viability 72 h (Dasatinib) | IC50, cell viability 72 h (AZD5153) | IC50, cell viability 72 h (Doxorubicin) | IC50, cell viability 72 h (AZD5991) | IC50, cell viability 72 h (Trametinib) | IC50, cell viability 72 h (Gefitinib) | IC50, cell viability 72 h (Alisertib) | IC50, cell viability 72 h (Palbociclib) | IC50, cell viability 72 h (AZD4320) | IC50, cell viability 72 h (AZD2811) | IC50, cell viability 72 h (Savolitinib) | IC50, cell viability 72 h (Prexasertib) | IC50, cell viability 72 h (Olaparib; max 10 µM) | IC50, cell viability 72 h (Taselisib) | IC50, cell viability 72 h (Lapatinib) | IC50, cell viability 72 h (AZD1390) | IC50, cell viability 72 h (Crizotinib) | IC50, cell viability 72 h (Selumetinib; max 3 µM) | IC50, cell viability 72 h (Capivasertib; max 3 µM) | IC50, cell viability 72 h (Olaparib; max 3 µM)
1 | KM12 (Colorectal Carcinoma) | 454 nM | 1300 nM | > 3000 nM | 5540 nM | > 3000 nM | > 10000 nM | 90.8 nM | > 1000 nM | > 1 nM | 2280 nM | > 2000 nM | 287 nM | 357 nM | > 1000 nM | 35.6 nM | > 10000 nM | 1110 nM | 1170 nM | > 1000 nM | > 1000 nM | > 1000 nM | 66.6 nM | > 10000 nM | 7180 nM | > 10000 nM | > 300 nM | 271 nM |  |  | 
2 | KYSE-180 (Esophageal Squamous Cell Carcinoma) | 440 nM | > 10000 nM | > 3000 nM | 5360 nM | > 3000 nM | > 10000 nM | > 300 nM | > 1000 nM | > 1 nM | > 10000 nM | 1730 nM | > 1000 nM | > 1000 nM | 642 nM | > 1000 nM | > 10000 nM | > 10000 nM | > 10000 nM | > 1000 nM | > 1000 nM | > 1000 nM | 22.3 nM | > 10000 nM | 4520 nM | > 10000 nM | > 300 nM | > 10000 nM |  |  | 
3 | LN-18 (Glioblastoma) | > 3000 nM | > 10000 nM | 2530 nM | 8830 nM | > 3000 nM | > 10000 nM | 138 nM | > 1000 nM | > 1 nM | > 10000 nM | > 2000 nM | 342 nM | > 1000 nM | > 1000 nM | > 1000 nM | > 10000 nM | 1400 nM | > 10000 nM | > 1000 nM | > 1000 nM | > 1000 nM | 209 nM | > 10000 nM | 5680 nM | 9520 nM | > 300 nM | > 10000 nM |  |  | 
4 | MEL-JUSO (Melanoma) | > 3000 nM | > 10000 nM | > 3000 nM | > 10000 nM | > 3000 nM | > 10000 nM | > 300 nM | > 1000 nM | > 1 nM | > 10000 nM | > 2000 nM | > 1000 nM | > 1000 nM | > 1000 nM | 430 nM | > 10000 nM | > 10000 nM | > 10000 nM | > 1000 nM | > 1000 nM | > 1000 nM | 125 nM | > 10000 nM | > 10000 nM | > 10000 nM | > 300 nM | > 10000 nM |  |  | 
5 | MFM-223 (Breast Carcinoma) | 2300 nM | > 10000 nM | > 3000 nM | 5200 nM | > 3000 nM | > 10000 nM | > 300 nM | > 1000 nM | > 1 nM | 1620 nM | > 2000 nM | > 1000 nM | > 1000 nM | > 1000 nM | > 1000 nM | > 10000 nM | 633 nM | > 10000 nM | > 1000 nM | > 1000 nM | > 1000 nM | 59.9 nM | > 10000 nM | 1160 nM | > 10000 nM | > 300 nM | > 10000 nM |  |  | 
6 | MOLT-16 (T-Lymphoblastic Leukemia) | 168 nM | > 10000 nM | > 3000 nM | 557 nM | > 3000 nM | > 10000 nM | 2.33 nM | 308 nM | > 1 nM | 811 nM | > 2000 nM | 76.2 nM | 46.7 nM | 51.5 nM | > 1000 nM | > 10000 nM | 29.1 nM | 420 nM | 16.3 nM | 12.4 nM | > 1000 nM | 11.2 nM | 5600 nM | 1110 nM | 6350 nM | > 300 nM | 1770 nM |  |  | 
7 | NCI-H847 (Small Cell Lung Carcinoma) | 143 nM |  | 1950 nM | 901 nM | > 3000 nM | 5200 nM | 16 nM | > 1000 nM | > 1 nM |  |  |  | 281 nM | 665 nM | > 1000 nM |  | 10.1 nM |  | 15.6 nM | 58.4 nM |  | 15.1 nM | 6860 nM | 2330 nM |  |  |  | > 3000 nM | > 3000 nM | 
8 | P12-ICHIKAWA (T-Lymphoblastic Leukemia) | 262 nM | > 10000 nM | > 3000 nM | 1020 nM | > 3000 nM | > 10000 nM | 1.61 nM | > 1000 nM |  | 3170 nM | > 2000 nM | 89.1 nM |  | 252 nM | > 1000 nM | > 10000 nM | 38.1 nM | 1600 nM | 37.3 nM | 15.4 nM | > 1000 nM | 17.3 nM |  | > 10000 nM | > 10000 nM | > 300 nM | 2230 nM |  |  | > 3000 nM
